Molecular target: PspF1−275 (Escherichia coli, UniProt P37344)
Assay: analytical gel filtration, ADP-dependent dimer-to-hexamer shift
Format: binding
Details: 0.5 mM ADP, 10 μM protein, pH 8.0, 15 mM MgCl2, room temperature

Chain of PspF1−275 (P37344 1-275): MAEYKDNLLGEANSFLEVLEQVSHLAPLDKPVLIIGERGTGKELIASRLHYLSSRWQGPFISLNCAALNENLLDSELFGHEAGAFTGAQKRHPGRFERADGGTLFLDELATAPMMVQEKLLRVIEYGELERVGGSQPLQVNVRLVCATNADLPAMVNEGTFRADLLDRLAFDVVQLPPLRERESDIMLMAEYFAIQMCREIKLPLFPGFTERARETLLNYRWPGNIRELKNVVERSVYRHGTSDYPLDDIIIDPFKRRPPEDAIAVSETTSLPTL

Nc1ncnc2c1ncn2[C@@H]1O[C@H](COP(=O)(O)OP(=O)(O)O)[C@@H](O)[C@H]1O [ADP]
analytical gel filtration, ADP-dependent dimer-to-hexamer shift: dimers (Fig. 4A) in the absence of nucleotide and hexamers in the presence of ADP

Source: PMC2745333 (Molecular Microbiology, 2009)
